Where a name gives a salt, the structure may show the parent alone.

T1 sequence (Q15661 31-275): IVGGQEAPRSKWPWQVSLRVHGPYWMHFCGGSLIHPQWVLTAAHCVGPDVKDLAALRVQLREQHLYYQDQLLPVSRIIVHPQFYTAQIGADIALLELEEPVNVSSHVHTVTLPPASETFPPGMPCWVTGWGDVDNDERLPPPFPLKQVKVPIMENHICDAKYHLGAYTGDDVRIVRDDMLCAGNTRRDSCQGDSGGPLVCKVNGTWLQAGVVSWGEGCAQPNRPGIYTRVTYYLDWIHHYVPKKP

This experiment addresses T1, rh beta tryptase (Homo sapiens, UniProt Q15661).
T1 construct: purchased Promega
Nature of the experiment: tryptase inhibition test (cleavage of N-p-tosyl-Gly-Pro-Lys-para-nitroaniline, p-nitroaniline measured at 405 nm). It is filed as biochemical. The following applies: Tris HCl buffer pH 7.4 with calcium and heparin; substrate 0.6 mM; 5 minutes' pre-incubation, 5 minutes incubation at 37° C. On the procedure:
The compounds according to the invention are characterised by their tryptase-inhibiting activity. This ability to inhibit tryptase was investigated using the test described as follows. The measurement is carried out in Tris HCl buffer (100 mM), which additionally contains calcium (5 mM) and heparin ([…]), at pH 7.4. The standard used is rh beta tryptase which may be obtained commercially from Promega, for example. The substrate used is N-p-tosyl-Gly-Pro-Lys-para-nitroaniline in a concentration of 0.6 mM. The substrate is digested with tryptase to form p-nitroaniline which can be measured at 405 nm. Usually, an incubation period of 5 minutes and an incubation temperature of 37° C. are chosen. The enzyme activity used is 0.91 U/ml. The measurements are carried out in an Autoanalyser (Cobas Bio) made by Hofmann LaRoche. The potential inhibitory substances are used in concentrations of 10 μM in the screening, the inhibition of the tryptase being given in percent. The IC50 is determined at over 70% inhibition (concentration at which 50% of the enzyme activity is inhibited). After 5 minutes' pre-incubation of the potential inhibitory substances, the substrate is added to start the reaction, the formation of p-nitroaniline being taken as a measurement of the enzyme activity after 5 minutes, after testing the linearity.
Regarding `Cn1c(CCc2ccc(C(=N)N)cc2)nc2cc(N(Cc3cccc4ccccc34)C(=O)CN3CCN(c4ccccn4)CC3)ccc21` [Example 40, N-{2-[2-(4-Amidinophenyl)-ethyl]-1-methyl-benzimidazol-5-yl}-N-( - naphthylmethyl)-[2-(1-pyridin-2-yl-piperazin-4-yl)-acetamide]-dihydro-chloride], the IC50 – broadly, the concentration that gives 50% inhibition – was 13 nM. As for `Cn1c(CCc2ccc(C(=N)N)cc2)nc2cc(N(Cc3ccncc3)C(=O)CNCc3ccc(N)cc3)ccc21` [Example 74, N-{2-[2-(4-Amidinophenyl)-ethyl]-1-methyl-benzimidazol-5-yl}-N-(-pyridin-4-ylmethyl)-[2-(4-aminobenzylamino)-acetamide]-dihydrochloride], the IC50 came out at 57.4 nM. Take `Cn1c(CCc2ccc(C(=N)N)cc2)nc2cc(N(Cc3cccc4ccccc34)C(=O)CNCc3ccc(C(=N)N)cc3)ccc21` [Example 22, N-{2-[2-(4-Amidinophenyl)-ethyl]-1-methyl-benzimidazol-5-yl}-N-( - naphthylmethyl)-[4-amidinobenzylamino-acetamide]-trihydrochloride]: the IC50 worked out at 10 nM. With `Cn1c(CCc2ccc(C(=N)N)cc2)nc2cc(N(Cc3cccc4ccccc34)C(=O)CNCc3ccc(O)cc3)ccc21` [Example 52, N-{2-[2-(4-Amidinophenyl)-ethyl]-1-methyl-benzimidazol-5-yl}-N-( - naphthylmethyl)-[2-(4-hydroxybenzylamino)-acetamide]-dihydrochloride], the IC50 is 12 nM. The value for `Cn1c(CCc2ccc(C(=N)N)cc2)nc2cc(NC(=O)C(N)Cc3ccc(C(=N)N)cc3)ccc21` (centres unmarked) [Example 4, N-{2-[2-(4-Amidinophenyl)-ethyl]-1-methyl-benzimidazol-5-yl}-[2-amino-3-(p-amidinophenyl)-propionic Acid Amide]-trihydrochloride] was 55 nM. The value for `COc1ccccc1N1CCN(CC(=O)N(Cc2cccc3ccccc23)c2ccc3c(c2)nc(CCc2ccc(C(=N)N)cc2)n3C)CC1` [Example 58, N-{2-[2-(4-Amidinophenyl)-ethyl]-1-methyl-benzimidazol-5-yl}-N-( - naphthylmethyl)-[2-(1-(2-methoxyphenyl)-piperazin-4-yl)-acetamide]-dihydrochloride] was 19 nM; that for `CC(C)CN(C(=O)CCc1ccc(C(=N)N)cc1)c1ccc2c(c1)nc(CCc1ccc(C(=N)N)cc1)n2C` [Example 5, N-{2-[2-(4-Amidinophenyl)-ethyl]-1-methyl-benzimidazol-5-yl}-N-isobutyl-[3-(4-amidinophenyl)-propionamide]-dihydrochloride] was 61 nM. For the compound `Cn1c(CCc2ccc(C(=N)N)cc2)nc2cc(N(Cc3cccc4ccccc34)C(=O)CCCNC(=N)N)ccc21` [Example 30, N-{2-[2-(4-Amidinophenyl)-ethyl]-1-methyl-benzimidazol-5-yl}-N-( - naphthylmethyl)-[4-guanidino-butanoic acid amide]-dihydrochloride], the IC50 was 32 nM. The value for `Cn1c(CCc2ccc(C(=N)N)cc2)nc2cc(N(Cc3cccc4ccccc34)C(=O)CN3CCC(Cc4ccccc4)CC3)ccc21` [Example 70, N-{2-[2-(4-Amidinophenyl)-ethyl]-1-methyl-benzimidazol-5-yl}-N-( - naphthylmethyl)-[2-(4-benzyl-4-piperidin-1-yl)-acetamide]-dihydro-chloride] was 3.9 nM. As for “N-{2-[2-(4-Amidinophenyl)-ethyl]-1- methyl-benzimidazol-5-yl}-N-( - naphthylmethyl)-[2-(1-pyridin-2-yl- piperazin-4-yl)-acetamide]-trihydro- chloride [Example 79]”, the figure is 20.1 nM; as for `Cn1c(CCc2ccc(C(=N)N)cc2)nc2cc(N(Cc3cccc4ccccc34)C(=O)CCCCN)ccc21` [Example 24, N-{2-[2-(4-Amidinophenyl)-ethyl]-1-methyl-benzimidazol-5-yl}-N-( - naphthylmethyl)-[5-amino-pentanoic acid amide]-dihydrochloride], 29 nM.

The values above are taken from patent US6407130B1, “Carboxamide-substituted benzimidazoles having tryptase-inhibiting activity” (Boehringer Ingelheim Pharma KG, priority 1999, dated 2002).
